Laboratory results published in patent publication US5620958A, “Bradykinin antagonists” (Coretech, Inc., priority 1994, dated 1997).
Square brackets hold non-standard residues; d marks the D form. Peptide text beside a SMILES is read from it. Oic = O=C(O)[C@@H]1C[C@@H]2CCCC[C@@H]2N1; Hyp = O=C(O)[C@@H]1C[C@@H](O)CN1; dTic = O=C(O)[C@H]1Cc2ccccc2CN1; 2Thi = N[C@@H](Cc1cccs1)C(=O)O

Experiments:
[1] = biological target: T1, BK2 receptor (Rattus norvegicus, UniProt P25023); test: cell-based
T1 sequence (P25023 1-396): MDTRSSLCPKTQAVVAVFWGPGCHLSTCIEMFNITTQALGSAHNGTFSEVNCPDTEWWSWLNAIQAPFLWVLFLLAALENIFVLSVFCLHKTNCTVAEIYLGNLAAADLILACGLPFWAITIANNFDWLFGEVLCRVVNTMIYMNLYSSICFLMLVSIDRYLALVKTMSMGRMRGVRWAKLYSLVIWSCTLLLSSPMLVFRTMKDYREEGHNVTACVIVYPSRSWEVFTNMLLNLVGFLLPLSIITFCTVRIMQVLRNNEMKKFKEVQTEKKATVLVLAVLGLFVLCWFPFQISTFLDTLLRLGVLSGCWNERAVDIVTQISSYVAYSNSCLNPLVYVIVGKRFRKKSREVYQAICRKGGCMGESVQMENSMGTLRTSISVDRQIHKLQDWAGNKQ

[2] = biological target: T2, BK2 receptor (Cavia porcellus, UniProt O70526); test: guinea-pig ileum (GPI) in vitro, antagonism of BK; type: cell-based; details: Table B; read-out: pA2 GUINEA PIG ILEUM (converted)
T2 construct: tested for activity on guinea pig ileum in vitro on the standard tissue bath/strain gauge system; from tissue; host or cells: guinea pig ileum
T2 sequence (O70526 1-372): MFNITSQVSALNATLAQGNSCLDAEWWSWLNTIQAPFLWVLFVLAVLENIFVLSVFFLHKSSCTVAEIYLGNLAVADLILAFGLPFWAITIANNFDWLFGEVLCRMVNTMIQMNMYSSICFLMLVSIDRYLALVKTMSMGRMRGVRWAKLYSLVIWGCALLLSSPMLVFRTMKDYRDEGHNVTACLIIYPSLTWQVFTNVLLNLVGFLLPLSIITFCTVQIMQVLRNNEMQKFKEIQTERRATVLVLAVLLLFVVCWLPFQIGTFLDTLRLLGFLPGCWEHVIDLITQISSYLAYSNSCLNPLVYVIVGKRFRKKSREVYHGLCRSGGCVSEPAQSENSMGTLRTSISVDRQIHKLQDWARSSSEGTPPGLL
Protocol: Thus, in vitro studies were performed on standard assay systems, namely, guinea-pig ileum (GPI), rat uterus (RU) and rabbit jugular vein (RJV). […] The potency of each compound was assessed as a pA2 value according to the method of Arunlakshana & Schild, Br. J. Pharmacol. Chemother., 1.4:48-58 (1959). The pA2 can be defined as the negative logarithm of the molar concentration of the antagonist in the presence of which the potency of the agonist is reduced two-fold, i.e., twice the amount of agonist is required to produce a given response in the presence of, than in the absence of, the antagonist. A high potency of antagonism is indicated by a high pA2 value, i.e., a low concentration of antagonist is effective.
The percentage recovery (% Rec) was also determined for compounds with respect to each assay.
The various compounds identified in Table B below were prepared following the procedure of Example 1 with the Cys moiety introduced into the parent CP-0088 at the position indicated followed by reaction between the sulfhydryl group of the Cys residue and BMH to provide dimers as indicated. The Cys-modified monomers and the resultant dimers were tested for activity on guinea pig ileum in vitro on the standard tissue bath/strain gauge system as before.

[3] = biological target: T3, BK1 receptor (Oryctolagus cuniculus, UniProt P48748); test: blood pressure response to BK1 agonist in LPS-pretreated rabbits; type: in vivo, rabbit; details: rabbits given LPS (10 μg) 20 hours before
T3 construct: when administered to an intact animal; from tissue; host or cells: whole rabbit (systemic arterial blood pressure), LPS-pretreated
T3 sequence (P48748 1-352): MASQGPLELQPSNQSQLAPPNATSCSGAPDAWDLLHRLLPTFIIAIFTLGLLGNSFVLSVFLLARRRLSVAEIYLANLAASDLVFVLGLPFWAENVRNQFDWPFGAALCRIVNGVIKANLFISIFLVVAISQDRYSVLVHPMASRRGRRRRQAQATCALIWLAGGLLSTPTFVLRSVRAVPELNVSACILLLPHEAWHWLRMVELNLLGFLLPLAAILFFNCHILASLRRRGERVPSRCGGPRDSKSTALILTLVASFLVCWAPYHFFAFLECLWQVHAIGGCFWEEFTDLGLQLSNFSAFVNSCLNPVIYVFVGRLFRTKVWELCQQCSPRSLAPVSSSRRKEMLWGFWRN

[4] = biological target: T4, BK2 receptor (Oryctolagus cuniculus, UniProt Q28642); test: blood pressure response to BK2 agonist in LPS-pretreated rabbits; type: in vivo, rabbit; set-up: key to OBSERVED ANTAGONIST ACTIVITY BK2: +: indicates complete blockade of the blood pressure response to the appropriate agonist; +/-: indicates partial blockade; -: indicates no observable effect at the dose indicated; details: rabbits given LPS (10 μg) 20 hours before
T4 construct: when administered to an intact animal; from tissue; host or cells: whole rabbit (systemic arterial blood pressure), LPS-pretreated
T4 sequence (Q28642 1-367): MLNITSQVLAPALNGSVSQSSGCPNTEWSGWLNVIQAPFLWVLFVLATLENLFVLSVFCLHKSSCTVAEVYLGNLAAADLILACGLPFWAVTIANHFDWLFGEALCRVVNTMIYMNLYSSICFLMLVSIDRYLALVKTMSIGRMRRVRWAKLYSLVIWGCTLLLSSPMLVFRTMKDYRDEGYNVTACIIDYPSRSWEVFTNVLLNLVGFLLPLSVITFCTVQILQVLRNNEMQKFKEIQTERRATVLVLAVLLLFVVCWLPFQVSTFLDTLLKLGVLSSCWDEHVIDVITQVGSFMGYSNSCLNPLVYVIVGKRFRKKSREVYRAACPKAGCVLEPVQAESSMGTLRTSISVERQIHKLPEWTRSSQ

SMILES	Kb [1]	Kb [2]	OBSERVED ANTAGONIST ACTIVITY BK1 ([3]; 1 μg kg^-1 min^-1)	OBSERVED ANTAGONIST ACTIVITY BK1 ([3]; 3 μg kg^-1 min^-1)	OBSERVED ANTAGONIST ACTIVITY BK1 ([3]; 10 μg kg^-1 min^-1)	OBSERVED ANTAGONIST ACTIVITY BK2 ([4]; 1 μg kg^-1 min^-1)	OBSERVED ANTAGONIST ACTIVITY BK2 ([4]; 3 μg kg^-1 min^-1)	OBSERVED ANTAGONIST ACTIVITY BK2 ([4]; 10 μg kg^-1 min^-1)
CC(C)C[C@H](NC(=O)[C@@H](Cc1ccccc1)NC(=O)[C@H](CSC1CC(=O)N(CCCCCCCCCN2C(=O)CC(SC[C@H](NC(=O)[C@H](Cc3ccccc3)NC(=O)CNC(=O)[C@@H]3C[C@@H](O)CN3C(=O)[C@@H]3CCCN3C(=O)[C@H](CCCNC(=N)N)NC(=O)[C@H](N)CCCNC(=N)N)C(=O)N[C@H](Cc3ccccc3)C(=O)N[C@@H](CC(C)C)C(=O)N[C@@H](CCCNC(=N)N)C(=O)O)C2=O)C1=O)NC(=O)[C@H](Cc1ccccc1)NC(=O)CNC(=O)[C@@H]1C[C@@H](O)CN1C(=O)[C@@H]1CCCN1C(=O)[C@H](CCCNC(=N)N)NC(=O)[C@H](N)CCCNC(=N)N)C(=O)N[C@@H](CCCNC(=N)N)C(=O)O (stereo partly shown) [CP-0229] (HELM PEPTIDE1{[dR].R.P.[Hyp].G.F.C.[dF].L.R}|PEPTIDE2{[dR].R.P.[Hyp].G.F.C.[dF].L.R}|CHEM1{[O=C1CC([*:1])C(=O)N1CCCCCCCCCN1C(=O)CC([*:2])C1=O]}$PEPTIDE1,CHEM1,7:R3-1:R1|PEPTIDE2,CHEM1,7:R3-1:R2$$$V2.0)	0.501 nM							
CC(C)C[C@H](NC(=O)[C@@H](Cc1ccccc1)NC(=O)[C@H](CO)NC(=O)[C@H](CS)NC(=O)CNC(=O)[C@@H]1C[C@@H](O)CN1C(=O)[C@@H]1CCCN1C(=O)[C@H](CCCNC(=N)N)NC(=O)[C@H](N)CCCNC(=N)N)C(=O)N[C@@H](CCCNC(=N)N)C(=O)O [CP-0144] (HELM PEPTIDE1{[dR].R.P.[Hyp].G.C.S.[dF].L.R}$$$$V2.0)		398 nM						
CC(C)C[C@H](NC(=O)[C@@H](Cc1ccccc1)NC(=O)[C@H](CO)NC(=O)[C@H](Cc1ccccc1)NC(=O)CNC(=O)[C@@H]1C[C@@H](O)CN1C(=O)[C@@H]1CCCN1C(=O)[C@H](CCCNC(=N)N)NC(=O)[C@@H](N)CSC1CC(=O)N(CCCCCCN2C(=O)CC(SC[C@H](N)C(=O)N[C@@H](CCCNC(=N)N)C(=O)N3CCC[C@H]3C(=O)N3C[C@H](O)C[C@H]3C(=O)NCC(=O)N[C@@H](Cc3ccccc3)C(=O)N[C@@H](CO)C(=O)N[C@H](Cc3ccccc3)C(=O)N[C@@H](CC(C)C)C(=O)N[C@@H](CCCNC(=N)N)C(=O)O)C2=O)C1=O)C(=O)N[C@@H](CCCNC(=N)N)C(=O)O (stereo partly shown) [CP-0152] (HELM PEPTIDE1{C.R.P.[Hyp].G.F.S.[dF].L.R}|PEPTIDE2{C.R.P.[Hyp].G.F.S.[dF].L.R}|CHEM1{[O=C1CC([*:1])C(=O)N1CCCCCCN1C(=O)CC([*:2])C1=O]}$PEPTIDE1,CHEM1,1:R3-1:R1|PEPTIDE2,CHEM1,1:R3-1:R2$$$V2.0)		> 1000 nM						
CC(C)C[C@H](NC(=O)[C@@H]1CCCN1C(=O)[C@H](CO)NC(=O)[C@H](Cc1ccccc1)NC(=O)CNC(=O)[C@@H]1CCCN1C(=O)[C@@H]1CCCN1C(=O)[C@H](CCCNC(=N)N)NC(=O)[C@@H](N)CCCCN)C(=O)O [CP-0298, Lys^0Arg^1Pro^2Pro^3Gly^4Phe^5Ser^6Pro^7Leu^8, reference compound]			+	+	+	-	-	-
CC(C)C[C@H](NC(=O)[C@@H](Cc1ccccc1)NC(=O)[C@H](CSC1CC(=O)N(CCCCCCCCCCN2C(=O)CC(SC[C@H](NC(=O)[C@H](Cc3ccccc3)NC(=O)CNC(=O)[C@@H]3C[C@@H](O)CN3C(=O)[C@@H]3CCCN3C(=O)[C@H](CCCNC(=N)N)NC(=O)[C@H](N)CCCNC(=N)N)C(=O)N[C@H](Cc3ccccc3)C(=O)N[C@@H](CC(C)C)C(=O)N[C@@H](CCCNC(=N)N)C(=O)O)C2=O)C1=O)NC(=O)[C@H](Cc1ccccc1)NC(=O)CNC(=O)[C@@H]1C[C@@H](O)CN1C(=O)[C@@H]1CCCN1C(=O)[C@H](CCCNC(=N)N)NC(=O)[C@H](N)CCCNC(=N)N)C(=O)N[C@@H](CCCNC(=N)N)C(=O)O (stereo partly shown) [CP-0230] (HELM PEPTIDE1{[dR].R.P.[Hyp].G.F.C.[dF].L.R}|PEPTIDE2{[dR].R.P.[Hyp].G.F.C.[dF].L.R}|CHEM1{[O=C1CC([*:1])C(=O)N1CCCCCCCCCCN1C(=O)CC([*:2])C1=O]}$PEPTIDE1,CHEM1,7:R3-1:R1|PEPTIDE2,CHEM1,7:R3-1:R2$$$V2.0)	2.51 nM							
CC(C)C[C@H](NC(=O)[C@@H](Cc1ccccc1)NC(=O)[C@H](CO)NC(=O)[C@H](Cc1ccccc1)NC(=O)CNC(=O)[C@@H]1C[C@@H](O)CN1C(=O)[C@@H]1CCCN1C(=O)[C@H](CSC1CC(=O)N(CCCCCCN2C(=O)CC(SC[C@H](NC(=O)[C@H](Cc3ccccc3)NC(=O)CNC(=O)[C@@H]3C[C@@H](O)CN3C(=O)[C@@H]3CCCN3C(=O)[C@H](CCCNC(=N)N)NC(=O)[C@H](N)CCCNC(=N)N)C(=O)N[C@H](Cc3ccccc3)C(=O)N[C@@H](CC(C)C)C(=O)N[C@@H](CCCNC(=N)N)C(=O)O)C2=O)C1=O)NC(=O)[C@H](N)CCCNC(=N)N)C(=O)O (stereo partly shown) [CP-0386] (HELM PEPTIDE1{[dR].R.P.[Hyp].G.F.C.[dF].L.R}|PEPTIDE2{[dR].C.P.[Hyp].G.F.S.[dF].L}|CHEM1{[O=C1CC([*:1])C(=O)N1CCCCCCN1C(=O)CC([*:2])C1=O]}$PEPTIDE1,CHEM1,7:R3-1:R1|PEPTIDE2,CHEM1,2:R3-1:R2$$$V2.0; N-terminus and C-terminus assumed)			+	+	+	+	+	+
N=C(N)NCCC[C@@H](N)C(=O)N[C@@H](CCCNC(=N)N)C(=O)N1CCC[C@H]1C(=O)N1C[C@H](O)C[C@H]1C(=O)NCC(=O)N[C@@H](Cc1cccs1)C(=O)N[C@@H](CO)C(=O)N1Cc2ccccc2C[C@@H]1C(=O)N1[C@H](C(=O)O)C[C@@H]2CCCC[C@@H]21 [CP-0345] (H-[dR]RP[Hyp]G[2Thi]S[dTic][Oic]-OH; N-terminus and C-terminus assumed)			-	+	+	-	+/-	+
N=C(N)NCCC[C@@H](N)C(=O)N[C@@H](CCCNC(=N)N)C(=O)N1CCC[C@H]1C(=O)N1C[C@H](O)C[C@H]1C(=O)NCC(=O)N[C@@H](Cc1ccccc1)C(=O)N[C@@H](CO)C(=O)N1Cc2ccccc2C[C@@H]1C(=O)N1[C@H](C(=O)O)C[C@@H]2CCCC[C@@H]21 [CP-0267] (HELM PEPTIDE1{[dR].R.P.[Hyp].G.F.S.[O=C([C@H]1Cc2ccccc2CN1[*:1])[*:2]].[O=C(O)[C@@H]1C[C@@H]2CCCC[C@@H]2N1[*:1]]}$$$$V2.0)			-	-	+	-	-	+/-
